According to patent US11407822B2, “Treatment of fibrodysplasia ossificans progressiva” (REGENERON PHARMACEUTICALS, INC., priority 2014, dated 2022):

Tests used:
[1] = test system: Acvr1[R206H]COIN/+; Gt(ROSA26)SorCreERt2/+ mice; test: Example 2: ectopic bone formation in a mouse model of FOP after tamoxifen, in vivo μCT (ACVR1 kinase inhibitor); conditions: for mice showing ectopic bone formation / size of ectopic bone lesions: 3 mg/kg twice daily for 4 weeks; for mice showing ectopic bone formation: 4 weeks post initiation of tamoxifen, μCT; for size of ectopic bone lesions: versus vehicle control group
Description: (§1) ACVR1 and/or ACVR2 antagonists and variants or fragments thereof can also be screened for activity in an in vivo assay. For example, ACVR1 or ACVR2 antagonists or variants thereof can be screened for their ability to treat FOP in a mouse model of FOP (e.g., ability to decrease ectopic bone formation). Transgenic knock-in mice have been developed that carry a conditional allele encoding Acvr1[R206H]. These Acvr1^[R206H]COIN/+ mice are described in U.S. Ser. No. 14/207,320 and PCT/US2014/026582, which are incorporated by reference herein in its entirety. This allele expresses the R206H variant only after activation by Cre recombinase. This allows Cre-dependent activation of Acvr1[R206H] expression at specific tissues and at specific time by using different types of Cre driver lines. In this manner the resulting mice also bypass the perinatal lethality that has been observed with a non-regulated knock-in allele of Acvr1[R206H]. Activation of Acvr1[R206H] expression in young or in adult mice results in ectopic bone formation. […] Tamoxifen activates expression of Cre which then acts upon the Acvr1^[R206H]COIN/+ to convert it to Acvr1^[R206H]/+, thereby converting the genotype of the mice to mirror the genotype of the FOP patients that are ACVR1[R206H]. The Acvr1^[R206H] allele expresses Acvr1[R206H], and that is adequate to drive the development of FOP in the Acvr1^[R206H]/+; Gt(ROSA26)Sor^CreERt2/+ mice. This bypasses the embryonic lethality experienced with conventional Acvr1^[R206H] knock-in mice, Acvr1^tm1Emsh (http://www.informatics.jax.org/allele/key/828153). After tamoxifen treatment, the ACVR1, ACVR2A and/or ACVR2B antagonists or a control can be administered to the Acvr1^[R206H]COIN/+; Gt(ROSA26)Sor^CreERt2/+ mice and the animals monitored for ectopic bone formation. See Chakkalakal S A, et al. (20120 An Acvr1 R206H knock-in mouse has fibrodysplasia ossificans progressiva. J Bone Miner Res. 27(8):1746-56. This assay is described in detail in the Examples below.
16 Acvr1^[R206H]COIN/+; Gt(ROSA26)Sor^CreERt2/+ mice were given tamoxifen at 1 mg/mouse dose i.p. for eight days. Eight mice were treated with 3 mg/kg of the ACVR1 kinase inhibitor LDN-212854 (Mohedas et al. (2013) ACS Chem. Biol. 8:1291-1302) twice daily for 4 weeks. Eight mice were treated with vehicle control twice daily for 4 weeks. Mice were monitored using in vivo μCT at baseline, 2 and 4 weeks post initiation of tamoxifen administration.

[2] = test system: Acvr1[R206H]COIN/+; Gt(ROSA26)SorCreERt2/+ mice; test: Example 5: ectopic bone formation in a mouse model of FOP after tamoxifen, in vivo μCT, dose comparison of Activin A antibody; conditions: for mice that developed ectopic bone: nine mice, after 4 weeks, μCT; for average total volume of ectopic bone: at 6.5 weeks, calculated from μCT images
Description: as §1
35 Acvr1[R206H]COIN/+; Gt(ROSA26)SorCreERt2/+ mice were given with tamoxifen at 40 mg/kg i.p. for eight days. Eight mice were treated with 25 mg/kg isotype control antibody (REGN1945), nine mice were treated with 25 mg/kg of Activin A antibody (H4H10446P) (REGN2477), nine mice were treated with 10 mg/kg of Activin A antibody (REGN2477) and nine mice were treated with 1 mg/kg of Activin A antibody (REGN2477) weekly for 6 weeks. Mice were monitored using in vivo μCT at baseline, 2, 3, 4 and 6.5 weeks post initiation of tamoxifen administration. The volume of ectopic bone in each mouse was calculated from μCT images. […] At 6.5 weeks the average total volume of ectopic bone in the isotype treated group was 65.4 mm3 compared to 1.87 mm^3 in the 25 mg/kg, 0.3 mm^3 in the 10 mg/kg and 7.3 mm^3 in the 1 mg/kg Activin antibody treated groups.

[3] = target: T1, Activin A binding to ACVR2A or ACVR2B (Homo sapiens, UniProt P08476); conditions: as described for the antibody in US2015/0037339 or U.S. Pat. No. 8,309,082; cited from earlier work
T1 sequence (P08476 311-426): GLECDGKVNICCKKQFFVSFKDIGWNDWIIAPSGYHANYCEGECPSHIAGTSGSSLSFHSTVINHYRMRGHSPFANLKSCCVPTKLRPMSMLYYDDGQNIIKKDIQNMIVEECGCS

[4] = test system: Acvr1[R206H]COIN/+; Gt(ROSA26)SorCreERt2/+ mice; test: Example 4: ectopic bone formation in a mouse model of FOP after tamoxifen, in vivo μCT (Activin A antibody, Acvr2a/Acvr2b antibody); conditions: for protection from / inhibition of ectopic bone formation after tamoxifen treatment: mouse, in vivo
Description: as §1, with “See Chakkalakal S A, et al. (20120 An Acvr1 R206H knock-in mouse has fibrodysplasia ossificans progressiva. J Bone Miner Res. 27(8):1746-56. This assay is described in detail in the Examples below.” left out
26 Acvr1[R206H]COIN/+; Gt(ROSA26)SorCreERt2/+ mice were given with tamoxifen at a 40 mg/kg dose i.p. for eight days. […] Mice were monitored using in vivo μCT at baseline, 2, 3 and 4 weeks post initiation of tamoxifen administration. […]

[5] = test system: Acvr1[R206H]COIN/+; Gt(ROSA26)SorCreERt2/+ mice; test: Example 3: ectopic bone formation in a mouse model of FOP after tamoxifen, in vivo μCT (Activin A antibody, ACVR2a-Fc)
Description: ACVR1 and/or ACVR2 antagonists and variants or fragments thereof can also be screened for activity in an in vivo assay. For example, ACVR1 or ACVR2 antagonists or variants thereof can be screened for their ability to treat FOP in a mouse model of FOP (e.g., ability to decrease ectopic bone formation). Transgenic knock-in mice have been developed that carry a conditional allele encoding Acvr1[R206H]. These Acvr1^[R206H]COIN/+ mice are described in U.S. Ser. No. 14/207,320 and PCT/US2014/026582, which are incorporated by reference herein in its entirety. This allele expresses the R206H variant only after activation by Cre recombinase. This allows Cre-dependent activation of Acvr1[R206H] expression at specific tissues and at specific time by using different types of Cre driver lines. […] After tamoxifen treatment, the ACVR1, ACVR2A and/or ACVR2B antagonists or a control can be administered to the Acvr1^[R206H]COIN/+; Gt(ROSA26)Sor^CreERt2/+ mice and the animals monitored for ectopic bone formation. […]
23 Acvr1^[R206H]COIN/+; Gt(ROSA26)^SorCreERt2/+ mice were treated with tamoxifen at 1 mg/mouse dose i.p. for eight days. […] Mice were monitored using in vivo micro computer tomography (μCT) at baseline, 2 and 3 weeks post initiation of tamoxifen administration. […]

[6] = test system: Activin A mediated signaling through ACVR2A and/or ACVR2B; conditions: as described for the antibody in US2015/0037339 or U.S. Pat. No. 8,309,082; cited from earlier work

Compound	mice showing ectopic bone formation [1]	mice showing ectopic bone formation ([1]; listed as LDN212854)	size of ectopic bone lesions [1]	size of ectopic bone lesions ([1]; listed as LDN212854)	protection from ectopic bone formation after tamoxifen treatment ([1]; LDN-212854 treatment)	mice that developed ectopic bone ([2]; 1 mg/kg weekly)	average total volume of ectopic bone ([2]; 1 mg/kg weekly)	mice that developed ectopic bone ([2]; 10 mg/kg weekly)	average total volume of ectopic bone ([2]; 10 mg/kg weekly)	mice that developed ectopic bone ([2]; 25 mg/kg weekly)	average total volume of ectopic bone ([2]; 25 mg/kg weekly)	effectiveness of varying doses against ectopic bone formation (FIG. 5) ([2]; doses 1, 10 and 25 mg/kg versus isotype control antibody)	protection from ectopic bone formation after tamoxifen treatment ([2]; mouse, in vivo)	inhibition of Activin A binding to ACVR2A and/or ACVR2B [3]	mice that developed ectopic bone ([4]; 10 mg/kg twice weekly, nine mice per group, 4 weeks post initiation of tamoxifen, μCT)	protection from / inhibition of ectopic bone formation after tamoxifen treatment ([4]; listed as Activin A)	protection from / inhibition of ectopic bone formation after tamoxifen treatment ([4]; listed as antibody against Activin A)	mice showing development of ectopic bone ([5]; 25 mg/kg twice weekly, eight mice, 3 weeks post initiation of tamoxifen, μCT)	inhibition of formation of ectopic bone nodules (FIG. 3) ([5]; compared with isotype control antibody and ACVR2A-Fc)	inhibition of Activin A signal transduction through ACVR2A and/or ACVR2B [6]
c1cc(-c2cnn3cc(-c4ccc(N5CCNCC5)cc4)cnc23)c2cccnc2c1 [LDN-212854]	3 out of 8	No ectopic bone nodules could be detected in mice numbered 10, 11, 14, 15 or 16	small compared to the vehicle control group	Small ectopic bone nodules have formed in mice numbered 9, 12 and 13	protected from ectopic bone formation	–	–	–	–	–	–	–	–	–	–	–	–	–	–	–
H4H10446P: Antibody against Activin A designated H4H10446P in US2015037339; heavy and light chain variable regions present SEQ ID NOs:1 and 5	–	–	–	–	–	2 mice	7.3 mm^3	2 mice	0.3 mm^3	2 mice	1.87 mm^3	Dosages between 1 mg/kg and 25 mg/kg were shown to be effective with 10 mg/kg being the most effective dose tested	protected from ectopic bone formation	does not inhibit strongly, if at all	one	protected from ectopic bone formation	inhibited formation of ectopic bone nodules	none	inhibited formation of ectopic bone nodules most effectively	inhibits Activin A mediated signaling through ACVR2A and/or ACVR2B
